Laboratory results taken from ChEMBL document CHEMBL3608269, “Triazole-Linked Glycolipids Enhance the Susceptibility of MRSA to β-Lactam Antibiotics” (ACS Med Chem Lett, 2015).
Converted amounts (≈) assume the structure as drawn. The source made the active and inactive calls. No cut-off for these calls is given here.

Experiments:
Staphylococcus aureus [1] = assay: Antibacterial activity against methicillin-resistant Staphylococcus aureus ATCC 43300 after 20 to 24 hrs by CLSI method; assay type: functional
Staphylococcus aureus [2] = assay: Potentiation of oxacillin-mediated antibacterial activity against methicillin-resistant Staphylococcus aureus ATCC 43300 assessed as decrease in oxacillin MIC at 32 ug/ml after 20 to 24 hrs by CLSI method relative to control; assay type: functional
HEK293 = assay: Cytotoxicity against HEK293 cells assessed as cell viability at 8 to 128 ug/ml by MTS assay; assay type: cell-based; settings: human
MEF = assay: Cytotoxicity against MEF assessed as cell viability at 8 to 128 ug/ml by MTS assay; assay type: cell-based; settings: mouse
Staphylococcus aureus [3] = assay: Potentiation of oxacillin-mediated antibacterial activity against methicillin-resistant Staphylococcus aureus ATCC 43300 assessed as growth inhibition at 32 ug/ml after 24 hrs by epsilometer test; assay type: functional, organism-based
Staphylococcus aureus [4] = assay: Antibacterial activity against methicillin-resistant Staphylococcus aureus ATCC 43300 assessed as growth inhibition at 32 ug/ml measured up to 24 hrs by time kill assay; assay type: functional, organism-based
Staphylococcus aureus [5] = assay: Potentiation of carbenicillin-mediated antibacterial activity against methicillin-resistant Staphylococcus aureus ATCC 43300 assessed as decrease in carbenicillin MIC at 32 ug/ml by checkerboard method relative to control; assay type: functional
Staphylococcus aureus [6] = assay: Potentiation of cephazolin-mediated antibacterial activity against methicillin-resistant Staphylococcus aureus ATCC 43300 assessed as decrease in cephazolin MIC at 32 ug/ml by checkerboard method relative to control; assay type: functional
Staphylococcus aureus [7] = assay: Potentiation of cephalexin-mediated antibacterial activity against methicillin-resistant Staphylococcus aureus ATCC 43300 assessed as decrease in cephalexin MIC at 32 ug/ml by checkerboard method relative to control; assay type: functional
Staphylococcus aureus [8] = assay: Potentiation of cefotiam-mediated antibacterial activity against methicillin-resistant Staphylococcus aureus ATCC 43300 assessed as decrease in cefotiam MIC at 32 ug/ml by checkerboard method relative to control; assay type: functional
Staphylococcus aureus [9] = assay: Potentiation of cefmetazole-mediated antibacterial activity against methicillin-resistant Staphylococcus aureus ATCC 43300 assessed as decrease in cefmetazole MIC at 32 ug/ml by checkerboard method relative to control; assay type: functional
Staphylococcus aureus [10] = assay: Potentiation of cefuroxime mediated antibacterial activity against methicillin-resistant Staphylococcus aureus ATCC 43300 assessed as decrease in cefuroxime MIC at 32 ug/ml by checkerboard method relative to control; assay type: functional
Staphylococcus aureus [11] = assay: Potentiation of ceftriaxone mediated antibacterial activity against methicillin-resistant Staphylococcus aureus ATCC 43300 assessed as decrease in ceftriaxone MIC at 32 ug/ml by checkerboard method relative to control; assay type: functional
Staphylococcus aureus [12] = assay: Potentiation of ceftazidime mediated antibacterial activity against methicillin-resistant Staphylococcus aureus ATCC 43300 assessed as decrease in ceftazidime MIC at 32 ug/ml by checkerboard method relative to control; assay type: functional
Staphylococcus aureus [13] = assay: Downregulation of mecA mRNA expression in methicillin-resistant Staphylococcus aureus ATCC 43300 at 32 ug/ml after 4 hrs by RT-PCR analysis; assay type: functional, organism-based
Staphylococcus aureus [14] = assay: Downregulation of mecA mRNA expression in methicillin-resistant Staphylococcus aureus ATCC 43300 at 32 ug/ml after 4 hrs by RT-PCR analysis in presence of oxacillin; assay type: functional, organism-based
Staphylococcus aureus [15] = assay: Antibacterial activity against methicillin-resistant Staphylococcus aureus ATCC 43300 assessed as change in bacterial surface at 32 ug/ml after 4 hrs by scanning electron microscopic analysis; assay type: functional, organism-based
Staphylococcus aureus [16] = assay: Cellular uptake in methicillin-resistant Staphylococcus aureus ATCC 43300 by HPLC analysis in presence of oxacillin; assay type: ADME, organism-based; settings: in vivo
Staphylococcus aureus [17] = assay: Potentiation of oxacillin-mediated antibacterial activity against methicillin-resistant Staphylococcus aureus R36 clinical isolate at 32 ug/ml after 20 to 24 hrs by CLSI method; assay type: functional
Staphylococcus aureus [18] = assay: Potentiation of oxacillin-mediated antibacterial activity against methicillin-resistant Staphylococcus aureus R49 clinical isolate at 16 ug/ml after 20 to 24 hrs by CLSI method; assay type: functional
Staphylococcus aureus [19] = assay: Potentiation of oxacillin-mediated antibacterial activity against methicillin-resistant Staphylococcus aureus R50 clinical isolate at 16 ug/ml after 20 to 24 hrs by CLSI method; assay type: functional
Staphylococcus aureus [20] = assay: Potentiation of oxacillin-mediated antibacterial activity against methicillin-resistant Staphylococcus aureus R53 clinical isolate at 16 ug/ml after 20 to 24 hrs by CLSI method; assay type: functional
Staphylococcus aureus [21] = assay: Potentiation of oxacillin-mediated antibacterial activity against methicillin-resistant Staphylococcus aureus R302 clinical isolate at 32 ug/ml after 20 to 24 hrs by CLSI method; assay type: functional
Staphylococcus aureus [22] = assay: Potentiation of oxacillin-mediated antibacterial activity against methicillin-resistant Staphylococcus aureus R306 clinical isolate at 32 ug/ml after 20 to 24 hrs by CLSI method; assay type: functional
Staphylococcus aureus [23] = assay: Potentiation of oxacillin-mediated antibacterial activity against methicillin-resistant Staphylococcus aureus R308 clinical isolate at 32 ug/ml after 20 to 24 hrs by CLSI method; assay type: functional
Staphylococcus aureus [24] = assay: Potentiation of oxacillin-mediated antibacterial activity against methicillin-resistant Staphylococcus aureus R313 clinical isolate at 32 ug/ml after 20 to 24 hrs by CLSI method; assay type: functional
Staphylococcus aureus [25] = assay: Potentiation of oxacillin-mediated antibacterial activity against methicillin-resistant Staphylococcus aureus R314 clinical isolate at 32 ug/ml after 20 to 24 hrs by CLSI method; assay type: functional
Staphylococcus aureus [26] = assay: Potentiation of oxacillin-mediated antibacterial activity against methicillin-resistant Staphylococcus aureus R36 clinical isolate assessed as decrease in oxacillin MIC at 32 ug/ml after 20 to 24 hrs by CLSI method relative to control; assay type: functional
Staphylococcus aureus [27] = assay: Potentiation of oxacillin-mediated antibacterial activity against methicillin-resistant Staphylococcus aureus R49 clinical isolate assessed as decrease in oxacillin MIC at 16 ug/ml after 20 to 24 hrs by CLSI method relative to control; assay type: functional
Staphylococcus aureus [28] = assay: Potentiation of oxacillin-mediated antibacterial activity against methicillin-resistant Staphylococcus aureus R302 clinical isolate assessed as decrease in oxacillin MIC at 32 ug/ml after 20 to 24 hrs by CLSI method relative to control; assay type: functional
Staphylococcus aureus [29] = assay: Potentiation of oxacillin-mediated antibacterial activity against methicillin-resistant Staphylococcus aureus R306 clinical isolate assessed as decrease in oxacillin MIC at 32 ug/ml after 20 to 24 hrs by CLSI method relative to control; assay type: functional
Staphylococcus aureus [30] = assay: Potentiation of oxacillin-mediated antibacterial activity against methicillin-resistant Staphylococcus aureus R308 clinical isolate assessed as decrease in oxacillin MIC at 32 ug/ml after 20 to 24 hrs by CLSI method relative to control; assay type: functional
Staphylococcus aureus [31] = assay: Potentiation of oxacillin-mediated antibacterial activity against methicillin-resistant Staphylococcus aureus R313 clinical isolate assessed as decrease in oxacillin MIC at 32 ug/ml after 20 to 24 hrs by CLSI method relative to control; assay type: functional
Staphylococcus aureus [32] = assay: Potentiation of oxacillin-mediated antibacterial activity against methicillin-resistant Staphylococcus aureus R314 clinical isolate assessed as decrease in oxacillin MIC at 32 ug/ml after 20 to 24 hrs by CLSI method relative to control; assay type: functional

CCCCCCCCCCCCOCc1cn([C@@H]2O[C@H](CO)[C@@H](O)[C@H](O)[C@H]2O)nn1
MIC (Staphylococcus aureus [1]): 256 µg/mL (≈ 596 µM) | fold change (FC) (Staphylococcus aureus [2]): 128 | Activity (HEK293): Non-toxic | Activity (MEF): Non-toxic | growth inhibition (GI) (Staphylococcus aureus [3]): Active | growth inhibition (GI) (Staphylococcus aureus [4]): inactive | fold change (FC) (Staphylococcus aureus [5]): <=256 | fold change (FC) (Staphylococcus aureus [6]): <=256 | fold change (FC) (Staphylococcus aureus [7]): <=256 | fold change (FC) (Staphylococcus aureus [8]): <=256 | fold change (FC) (Staphylococcus aureus [9]): <=256 | fold change (FC) (Staphylococcus aureus [10]): <=256 | fold change (FC) (Staphylococcus aureus [11]): <=256 | fold change (FC) (Staphylococcus aureus [12]): <=256 | Activity (Staphylococcus aureus [13]): Active | Activity (Staphylococcus aureus [14]): Active | Activity (Staphylococcus aureus [15]): inactive | Drug uptake (Staphylococcus aureus [16]): Active | MIC (Staphylococcus aureus [17]): 8 µg/mL | MIC (Staphylococcus aureus [18]): < 1 µg/mL | MIC (Staphylococcus aureus [19]): < 1 µg/mL | MIC (Staphylococcus aureus [20]): < 1 µg/mL | MIC (Staphylococcus aureus [21]): 128 µg/mL | MIC (Staphylococcus aureus [22]): 32 µg/mL | MIC (Staphylococcus aureus [23]): 256 µg/mL | MIC (Staphylococcus aureus [24]): 8 µg/mL | MIC (Staphylococcus aureus [25]): 16 µg/mL | MIC (Staphylococcus aureus [26]): 8 µg/mL | MIC (Staphylococcus aureus [27]): 8 µg/mL | MIC (Staphylococcus aureus [28]): 4 µg/mL | MIC (Staphylococcus aureus [29]): 16 µg/mL | MIC (Staphylococcus aureus [30]): 4 µg/mL | MIC (Staphylococcus aureus [31]): 1 µg/mL | MIC (Staphylococcus aureus [32]): 32 µg/mL
